Legend:
Sirt1 [1] = target: T1, Sirt1 (Homo sapiens, UniProt Q96EB6); test: Homogeneous ZMAL-based fluorescence assay, Sirt1; format: biochemical; settings: 4th round
T1 construct: made in house; host or cells: E. coli BL21 Star (DE3)
T1 sequence (Q96EB6 134-747): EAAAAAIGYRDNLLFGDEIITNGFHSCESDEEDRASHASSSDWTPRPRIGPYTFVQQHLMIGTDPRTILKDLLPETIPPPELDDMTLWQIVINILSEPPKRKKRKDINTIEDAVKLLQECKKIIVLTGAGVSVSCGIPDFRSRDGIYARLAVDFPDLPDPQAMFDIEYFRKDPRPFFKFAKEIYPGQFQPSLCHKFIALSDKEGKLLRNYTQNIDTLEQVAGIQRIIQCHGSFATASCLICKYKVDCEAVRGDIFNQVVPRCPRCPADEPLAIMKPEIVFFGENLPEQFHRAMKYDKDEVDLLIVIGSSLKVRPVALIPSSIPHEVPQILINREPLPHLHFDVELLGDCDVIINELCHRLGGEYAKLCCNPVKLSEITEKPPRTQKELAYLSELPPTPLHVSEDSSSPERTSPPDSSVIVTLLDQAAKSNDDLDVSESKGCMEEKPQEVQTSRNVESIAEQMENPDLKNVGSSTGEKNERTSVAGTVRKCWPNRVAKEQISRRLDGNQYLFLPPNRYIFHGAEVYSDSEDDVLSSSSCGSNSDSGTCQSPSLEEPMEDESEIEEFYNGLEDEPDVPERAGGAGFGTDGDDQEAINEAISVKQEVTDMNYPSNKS
Protocol: Recombinant human Sirt5_37−310 was purchased readily in Tris Buffer [25 mM Tris, 100 mM NaCl, 5 mM DTT, 10% glycerol (v/v)] from Enzo Life Sciences (NY, USA). Human Sirt3_118−395 was expressed and purified as described previously ([54]). For expression of human Sirt1_134−747 and Sirt2_56−356 chemically competent cells of E. coli BL21 Star (DE3) were transformed with the expression vectors pET30S-hSirt1_134−747 or pET30S-hSirt2_56−356. Bacteria were grown at 37°C in 2×YT medium supplemented with 50 μg·mL^−1 of kanamycin to an OD600 of 0.6. Then isopropyl-β-D-1-thiogalactopyranoside (IPTG) was added to a final concentration of 1 mM to induce gene expression. After further cultivation at 20°C for 12 h, the cells were harvested by centrifugation for 15 min at 5,000 g. The cells were resuspended in lysis buffer [100 mM Tris/HCl buffer at pH 8.0, 150 mM NaCl and 10% (v/v) glycerol] and disrupted by ultrasonication (Branson Digital Sonifier 250) at 70% amplitude for 10 min (3 s working, 10 s pause). The crude extract was cleared by centrifugation at 100,000 g for 1 h, and the supernatant was loaded onto a Strep-Tactin Superflow cartridge (5 ml bed volume, IBA Lifescience, Germany). Target proteins were eluted with lysis buffer containing 5 mM D-Desthiobiotin (IBA Lifescience, Germany) and further separated by size-exclusion chromatography (Superdex S200 26/60, GE Healthcare, IL, USA) equilibrated in Tris/HCl buffer (20 mM, 150 mM NaCl, pH 8.0). Pure protein was concentrated by ultrafiltration, flash-frozen in liquid nitrogen and stored at −80°C until further use. Identity as well as purity were verified by SDS-PAGE ([55]) and protein concentration was determined by the bicinchoninic acid (BCA) method, using bovine serum albumin (BSA) as a standard ([56]). Deacetylase activity was confirmed to be NAD^+-dependent and could be inhibited with the physiological sirtuin inhibitor nicotinamide.
All compounds were tested in the trypsin-coupled high-throughput ZMAL-assay in black 96-well plates (OptiPlateTM−96F, black, 96 well, Pinch bar design, PerkinElmer, USA), using ZMAL (Z-Lys(acetyl)-AMC) as a substrate ([57]). Sirt1_134−747, Sirt2_56−356, and Sirt3_118−395 were mixed with 5 μL substrate (10.5 μM final assay concentration, diluted from a […] stock in DMSO) and 3 μL Inhibitor in DMSO at various concentrations or DMSO as a control [final DMSO concentration 5% (v/v)]. The mixture was supplemented with assay buffer (50 mM Tris/HCl, 137 mM NaCl, 2.7 mM KCl, 1 mM MgCL2, pH 8.0) to a total volume of 55 μL. Enzyme concentration was adjusted to get a final conversion of 20–30%. Addition of 5 μL NAD^+ (6 mM in assay buffer, final assay concentration of 500 μM) initiated the catalytic reaction and the plates were incubated at 37°C for 4 h with agitation at 140 rpm. The catalytic reaction was stopped by addition of 60 μL stop solution [50 mM Tris, 100 mM NaCl, 6.7% (V/V) DMSO, 5.5 U/μL trypsin, 8 μM nicotinamide, pH 8.0]. The plate was again incubated at 37°C and 140 rpm for 20 min to release free AMC from the deacetylated substrate by trypsin digestion. Afterwards, fluorescence intensity was measured in a microplate reader (λEx = 390 nm, λEm = 460 nm, BMG POLARstar Optima, BMG Labtech, Germany). An enzyme-free blank control and a 100% conversion control containing AMC instead of ZMAL were measured in addition. Inhibition was calculated in % in relation to a DMSO control after blank signal subtraction and IC50 values were determined using a non-linear regression to fit the dose-response curve with OriginPro 9G (OriginLab, USA). Pre-tests as well as IC50 determination was carried out at least twice in duplicates.

Sirt1 [2] = target: T1, Sirt1; test: Fluorescent thermal shift assay (FTSA), Sirt1; format: binding; settings: inhibitor 100 μM; read-out: Thermal shift assay: Δ Tm of Sirt1
Protocol: In a 96-well plate (Hard-Shell® PCR-plates, 96-well, thin-wall, BioRAD, USA) 14 μL Sirt1_134−747 in assay buffer (0.3 mg/mL final assay concentration, 50 mM Tris/HCl, 137 mM NaCl, 2.7 mM KCl, 1 mM MgCL2, pH 8.0) were mixed with 1 μL inhibitor in DMSO (100 μM) or DMSO [final assay concentration 5% (v/v)] as a control and 5 μL SyproOrange (1:100 in assay buffer). The fluorescence intensity was monitored during a constant increase of temperature from 20 to 95°C, 1 K per 20 s, using a real-time-PCR-machine (C1000 TouchTM Thermal Cycler, CFX96TM Real-Time System, BioRAD, USA). Melting temperatures were calculated via GraphPad Prism according to a published procedure ([60]).

MCF7 cells = test: Cell proliferation assay with MCF7 cells; format: cell-based, human; settings: concentrations as for HeLa
Protocol: 1.5 × 10^4 cells/well were seeded in 24-well plates and grown in DMEM 10% in presence of DMSO, 20 μM EX-527, 12 μM S1th 13, 20 μM S1th 12, or 30 μM S1th 10. The growth media containing the drugs was replaced every 48 h. Cells were collected and counted at the indicated times starting 24 h after seeding (0, 24, 48, 72, 96, and 120 h). The experiment was performed twice in duplicates.

Structure (SMILES)	IC50 (Sirt1 [1])	ΔTm at 100 µM (Sirt1 [2])	cell proliferation of MCF7 cells (MCF7 cells)
N#CSc1cc(SC#N)c(N)nc1N [PR-619, reference compound]	2.7 ± 0.2 µM		
N#CSc1cccc(NC(=O)[C@H]2CC=CC[C@H]2C(=O)O)c1 [S1th 10]	23 ± 6 µM	-5.9 °C	most effective
CCCCNC(=O)Nc1cccc(SC#N)c1 [S1th 11]	6.3 ± 0.8 µM	-8.1 °C	
COc1ccc(SC#N)cc1OCC(=O)N(CCC#N)CCC#N [S1th 12]	5.9 ± 1.4 µM	-7.2 °C	only have a mild effect
N#CSc1cccc(NS(=O)(=O)c2ccc3c(c2)OCCO3)c1 [S1th 13]	5.2 ± 1 µM	-9.6 °C	most effective

From publication PMC7203344, “Sirtuin 1 Inhibiting Thiocyanates (S1th)—A New Class of Isotype Selective Inhibitors of NAD^+ Dependent Lysine Deacetylases” (Frontiers in Oncology, 2020)
